Measurements reported in US20220153746A1, “NITROGEN OXIDE-DONATING PDE-5 AND/OR PDE-6 INHIBITOR COMPOUNDS, AND USES THEREOF” (ILDONG PHARMACEUTICAL CO., LTD., priority 2020, published 2022).

What was measured:
human PDE-6C = human PDE-6C (Homo sapiens, UniProt P51160); assay: Human PDE-6C inhibition assay (fluorescence polarization, FAM-cGMP); format: biochemical; settings: read-out: IC50 (μM) PDE6C
[1] = tested on: intraocular pressure (IOP) of ocular hypertensive rabbits; assay: IOP lowering effect in ocular hypertensive rabbits (Example 9 Phase 2); format: in vivo; settings: for Reduction ratio of IOP / OD IOP Mean: 50 μL/eye t.i.d.; for Reduction ratio of IOP: treated right vs vehicle left eye; for IOP compared with the vehicle treated eyes: p≤0.05; for OD IOP Mean: treated right eye, Day 10/11
Experimental: Phase 2: To confirm the IOP lowering effect of test article at different concentrations in ocular hypertensive rabbits. Modeling was induced by intracameral injection of elastic substance in both eyes, once. Then, positive control articles/test article was instilled into right eyes of animals, 50 μL/eye, once at 5-15 minutes, 3 and 6 hours post modeling, respectively. All left eyes of animals in each group were dosed with vehicle, 50 μL/eye, once at 5-15 minutes, 3 and 6 hours post modeling, respectively. IOPs was measured at pre-modeling, 1, 2, 4, 6, 8, and 10 hours post first dose.
For further analysis of the IOP reduction effect, the IOP reduction ratio was calculated using the difference between the TA/PA treated and vehicle treated eyes at each time points post first dosing. The results were tabulated below:
Animals were sedated by Ketamine (30˜50 mg/kg) and anesthetized by Xylazine (5˜10 mg/kg), intramuscularly. Disinfected the conjunctival sac by washing with 5% povidone iodine, and then washed the conjunctival sac with saline. Fixed the eyeball with forceps, then inserted needle from the temporal limbus horizontally, avoided damaging the corneal endothelial and iris. Held the syringe still and injected the Medical Sodium Hyaluronate Gel slowly into the anterior chamber, 100 μl/eye, waited for at least 10 seconds, then pulled out the needle slowly. Pressed the injection spot immediately with swab for at least 3 minutes, blocked the injection spot with one drop of tissue adhesive.
For Phase 2, 50 μL of 1% and 2% Compound 18, 0.024% latanoprostene bunod ophthalmic solution and 0.005% latanoprost eye drops were instilled into the right eyes and the same volume of Vehicle (Gel-blank) into the left eyes in Group 5 to Group 8 of Ocular Hypertensive Rabbits, 50 μL/eye, three times. The first day of dosing in phase 1 was designated as Day 1.
(§1) Delivery Method: Drawed 50 μL of the articles with a pipette, pulled out the lower eyelid of the animal, dropped the article into the conjunctiva sac, and gently closed the upper and lower eyelids for a few times.
(§2) Species/Strain: New Zealand White Rabbits (Oryctolagus cuniculus). The New Zealand White Rabbit was used in this study. This is commonly used specie for non-clinical studies of ophthalmic formulations, for which there is a large historical database, and the relative large cornea size is suitable for topical operations.
(§3) Restrained the animal, made the testing eye perpendicular to the probe of the TonoVet tonometer, measured the IOP for at least three times until the values are stable. The mean of the last three stable values were calculated as the final IOP value.
IOP Measurement in Ocular Hypertensive Rabbits: IOP was measured at pre-modeling, and once at 1, 2, 4, 6, 8, and 10 hours post first daily dose in study phase 2.

[2] = tested on: intraocular pressure (IOP) of ocular normotensive rabbits; assay: IOP lowering effect in ocular normotensive rabbits (Example 8; Example 9 Phase 1); format: in vivo, New Zealand White Rabbits (Oryctolagus cuniculus); settings: for OD IOP Mean: 50 μL/eye once, treated right eye, Day 1
Text: This example illustrates the procedures and results of the intraocular pressure (IOP) lowering effect of compound 18 as compared to Latanoprostene bunod and latanoprost at different concentrations in ocular normotensive rabbits.
Forty (40) male New Zealand white rabbits were divided into 4 groups with 10 animals per group. Animals were then randomly assigned to groups based on body weight.
Latanoprostene bunod ophthalmic solution (LBN, 0.024%) and latanoprost eye drops (0.005%) were used as positive controls and dosed with the same volumes into the right eyes of the tested animals in groups 1 and 2 once.
Compound 18 was instilled into the right eyes of the tested animals in groups 3 (10 mg/mL) and 4 (20 mg/mL) at 50 μL per eye once.
All left eyes of the tested animals in each group were dosed with vehicle solution at 50 μL per eye.
The intraocular pressures (IOPs) were measured once at pre-dose and then once at 1, 2, 4, 6, 8, and 10 hours post dose for each group of animals. FIGS. 1 to 4 show the results from the IOP lowering studies for all four tested groups.
Phase 1: To confirm the IOP lowering effect of test article at different concentrations in ocular normotensive rabbits. Compound 18 was instilled into right eyes of animals in groups 3 and 4, 50 μL/eye, once. 0.024% latanoprostene bunod ophthalmic solution (LBN) and 0.005% latanoprost eye drops were served as positive control and be dosed with same volume into right eyes of groups 1 and 2 animals once. All left eyes of animals in each group were dosed with vehicle once, 50 μL/eye. IOPs was measured once at pre-dose and once at 1, 2, 4, 6, 8, 10 hours post dose. […]
as §1, §2, §3
IOP Measurement in Ocular Normotensive Rabbits: IOP was measured at pre-dose and once at 1, 2, 4, 6, 8, 10 hours post dose in study phase 1.

Sequence of human PDE-6C (P51160 whole entry): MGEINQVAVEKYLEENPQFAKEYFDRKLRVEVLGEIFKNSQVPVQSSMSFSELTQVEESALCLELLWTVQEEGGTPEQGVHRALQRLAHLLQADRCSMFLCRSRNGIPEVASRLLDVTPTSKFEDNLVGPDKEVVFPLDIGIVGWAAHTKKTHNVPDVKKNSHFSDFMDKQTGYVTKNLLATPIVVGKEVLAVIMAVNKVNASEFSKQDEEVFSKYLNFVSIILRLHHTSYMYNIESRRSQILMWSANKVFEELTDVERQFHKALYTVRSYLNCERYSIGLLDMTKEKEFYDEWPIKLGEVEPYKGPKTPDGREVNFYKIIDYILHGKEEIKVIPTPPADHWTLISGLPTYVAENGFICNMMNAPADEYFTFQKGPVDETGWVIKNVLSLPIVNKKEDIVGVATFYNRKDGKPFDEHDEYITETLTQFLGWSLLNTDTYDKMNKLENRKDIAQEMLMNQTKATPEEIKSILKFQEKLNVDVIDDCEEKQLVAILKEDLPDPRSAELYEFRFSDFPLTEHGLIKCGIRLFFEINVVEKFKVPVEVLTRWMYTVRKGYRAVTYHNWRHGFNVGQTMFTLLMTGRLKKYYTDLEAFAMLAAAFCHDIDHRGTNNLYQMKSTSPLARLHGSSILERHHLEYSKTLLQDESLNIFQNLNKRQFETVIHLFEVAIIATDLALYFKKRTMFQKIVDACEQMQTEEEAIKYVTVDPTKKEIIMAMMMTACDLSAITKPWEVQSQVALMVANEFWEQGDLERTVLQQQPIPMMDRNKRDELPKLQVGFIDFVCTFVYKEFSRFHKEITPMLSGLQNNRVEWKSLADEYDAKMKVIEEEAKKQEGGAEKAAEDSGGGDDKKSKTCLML

CCCc1nn(C)c2c(=O)[nH]c(-c3cc(S(=O)(=O)N4CC(CCCO)C4)ccc3OCC)nc12 [Compound 4, 5-(2-ethoxy-5-((3-(3-hydroxypropyl)azetidin-1-yl)sulfonyl)phenyl)-1-methyl-3-propyl-1,6-dihydro-7H-pyrazolo[4,3-d]pyrimidin-7-one]
IC50 (human PDE-6C): < 0.01 µM

CCCc1nn(C)c2c(=O)[nH]c(-c3cc(S(=O)(=O)N4CC(CCCO[N+](=O)[O-])C4)ccc3OCC)nc12 [Compound 18, 3-(1-((4-ethoxy-3-(1-methyl-7-oxo-3-propyl-6,7-dihydro-1H-pyrazolo[4,3-d]pyrimidin-5-yl)phenyl)sulfonyl)azetidin-3-yl)propyl nitrate]
tolerability ([1]; Example 9, topical instillation in rabbits): well tolerated
Reduction ratio of IOP ([1]; Group 7, 10 mg/mL, 1 h post first dose): 23.36%
Reduction ratio of IOP ([1]; Group 7, 10 mg/mL, 2 h post first dose): 35.65%
Reduction ratio of IOP ([1]; Group 7, 10 mg/mL, 4 h post first dose): 21.68%
Reduction ratio of IOP ([1]; Group 7, 10 mg/mL, 6 h post first dose): 28.06%
Reduction ratio of IOP ([1]; Group 7, 10 mg/mL, 8 h post first dose): 23.97%
Reduction ratio of IOP ([1]; Group 7, 10 mg/mL, 10 h post first dose): 21.67%
Reduction ratio of IOP ([1]; Group 8, 20 mg/mL, 1 h post first dose): 45.31%
Reduction ratio of IOP ([1]; Group 8, 20 mg/mL, 2 h post first dose): 34.59%
Reduction ratio of IOP ([1]; Group 8, 20 mg/mL, 4 h post first dose): 26.95%
Reduction ratio of IOP ([1]; Group 8, 20 mg/mL, 6 h post first dose): 18.04%
Reduction ratio of IOP ([1]; Group 8, 20 mg/mL, 8 h post first dose): 10.85%
Reduction ratio of IOP ([1]; Group 8, 20 mg/mL, 10 h post first dose): −5.73%
IOP compared with the vehicle treated eyes ([1]; Phase 2, 10 mg/mL, at 2 h post dosing): significant decreased IOPs
IOP compared with the vehicle treated eyes ([1]; Phase 2, 20 mg/mL, at 1 h post dosing): significant decreased IOPs
OD IOP Mean ([1]; Phase 2 Group 7, 10 mg/mL (1%), 1 h post first dose): 9.19
OD IOP Mean ([1]; Phase 2 Group 7, 10 mg/mL (1%), 2 h post first dose): 13.80
OD IOP Mean ([1]; Phase 2 Group 7, 10 mg/mL (1%), 4 h post first dose): 20.47
OD IOP Mean ([1]; Phase 2 Group 7, 10 mg/mL (1%), 6 h post first dose): 21.53
OD IOP Mean ([1]; Phase 2 Group 7, 10 mg/mL (1%), 8 h post first dose): 17.82
OD IOP Mean ([1]; Phase 2 Group 7, 10 mg/mL (1%), 10 h post first dose): 15.22
OD IOP Mean ([1]; Phase 2 Group 8, 20 mg/mL (2%), 1 h post first dose): 11.74
OD IOP Mean ([1]; Phase 2 Group 8, 20 mg/mL (2%), 2 h post first dose): 19.67
OD IOP Mean ([1]; Phase 2 Group 8, 20 mg/mL (2%), 4 h post first dose): 25.57
OD IOP Mean ([1]; Phase 2 Group 8, 20 mg/mL (2%), 6 h post first dose): 28.93
OD IOP Mean ([1]; Phase 2 Group 8, 20 mg/mL (2%), 8 h post first dose): 27.40
OD IOP Mean ([1]; Phase 2 Group 8, 20 mg/mL (2%), 10 h post first dose): 22.63
IOP after administration ([2]; Example 8, both 10 mg/mL and 20 mg/mL doses): significantly lower the IOP
IOP compared with the vehicle treated eyes ([2]; Phase 1, 10 mg/mL, at 1, 2, 4 h post dosing, p≤0.05): significant decreased IOPs
IOP compared with the vehicle treated eyes ([2]; Phase 1, 20 mg/mL, at 1, 2, 4, 8, 10 h post dosing (8, 10 h, p≤0.05; 1, 4 h, p≤0.01; 2 h, p≤0.001)): significant decreased IOPs
OD IOP Mean ([2]; Phase 1 Group 3, 10 mg/mL (1%), 1 h post dose): 12.50
OD IOP Mean ([2]; Phase 1 Group 3, 10 mg/mL (1%), 2 h post dose): 13.30
OD IOP Mean ([2]; Phase 1 Group 3, 10 mg/mL (1%), 4 h post dose): 14.17
OD IOP Mean ([2]; Phase 1 Group 3, 10 mg/mL (1%), 6 h post dose): 15.27
OD IOP Mean ([2]; Phase 1 Group 3, 10 mg/mL (1%), 8 h post dose): 15.57
OD IOP Mean ([2]; Phase 1 Group 3, 10 mg/mL (1%), 10 h post dose): 16.53
OD IOP Mean ([2]; Phase 1 Group 4, 20 mg/mL (2%), 1 h post dose): 11.47
OD IOP Mean ([2]; Phase 1 Group 4, 20 mg/mL (2%), 2 h post dose): 11.93
OD IOP Mean ([2]; Phase 1 Group 4, 20 mg/mL (2%), 4 h post dose): 13.70
OD IOP Mean ([2]; Phase 1 Group 4, 20 mg/mL (2%), 6 h post dose): 14.33
OD IOP Mean ([2]; Phase 1 Group 4, 20 mg/mL (2%), 8 h post dose): 15.20
OD IOP Mean ([2]; Phase 1 Group 4, 20 mg/mL (2%), 10 h post dose): 15.40
